Measurements reported in patent US20190134060A1, “25-HYDROXYCHOLESTEROL AND METHODS OF USE THEREOF” (priority 2016, published 2019).
“Also recorded” adds a separate entry of the source.

Legend:
rat hippocampal cultures = test: Oxygen-glucose deprivation (OGD, 2.5 hours)-induced cell death, PI/Hoechst survival; type: cell-based; conditions: for OGD-induced cell death exacerbated by 24S-HC, effect of NMDAR antagonist: co-treatment prior to and during OGD
Procedure: (§1) Cell culture. All animal care and experimental procedures were consistent with National Institutes of Health guidelines and were approved by the Washington University Animal Studies Committee. Studies involving animals are reported in accordance with the ARRIVE guidelines for reporting experiments involving animals (12, 13). Rat or mouse hippocampal cultures were prepared from postnatal day 1 to 3, pups of both sexes (85% female) anaesthetized with isoflurane. Hippocampal slices (500 μm thickness) were digested with 1 mg⋅mL^−1 papain in oxygenated LeibovitzL-15 medium (Life Technologies, Gaithersburg, Md., USA). Tissue was mechanically triturated in modified Eagle's medium (Life Technologies) containing 5% horse serum, 5% FCS, 17 mM D glucose, 400 μM glutamine, 50 U⋅mL^−1 penicillin and 50 μg⋅mL^−1 streptomycin. Cells were seeded in modified Eagle's medium at a density of ˜650 cells per mm^2 (onto 25 mm cover glasses coated with 5 mg⋅mL^−1 collagen or 0.1 mg⋅mL^−1 poly-D-lysine with 1 mg⋅mL^−1 laminin). Cultures were incubated at 37° C. in a humidified chamber with 5% CO2/95% air. Cytosine arabinoside (6.7 μM) was added 3-4 days after plating to inhibit glial proliferation. The following day, half of the culture medium was replaced with Neurobasal medium (Life Technologies) plus B27 supplement (Life Technologies).
(§2) Oxygen-glucose deprivation. Mass cultures (13-14 DIV) were exposed to oxygen-glucose deprivation (OGD), in which original medium containing 25 mM glucose was exchanged for fresh MEM medium […] and exposed to a sealed chamber (Billups-Rothenberg, Del Mar, Calif., USA), humidified and saturated with 95% nitrogen and 5% CO2 at 37° C., for 2.5 hours. The gas exchange followed the specifications of the chamber manufacturer (flow of 20 L⋅minute^−1 for 4 minutes to achieve 100% gas exchange). In some experiments, original medium was exchanged for fresh MEM medium containing the specified drugs immediately prior to OGD exposure. Controls were incubated in MEM medium without oxygen deprivation. Following OGD or control treatment, cells were returned to their original medium and incubated under standard culture conditions until the cell death assay (24 hours later). Hoechst 33342 (5 μM) was used to identify all nuclei and propidium iodide (PI, 3 μM) for 30 minutes to stain nuclei of cells with compromised membranes.
(§3) Data analysis. Five 10× microscope fields were quantified per condition per experiment, yielding>100 total neurons for each condition. Ratios of healthy neurons were quantified as the fraction of PI-negative neuronal nuclei to total neuronal nuclei. Automated cell counting algorithms (ImageJ software, National Institutes of Health, Bethesda, Md., USA) were used for cell counts. Toxicity experiments were treated as a dependent sample design (32) in which sibling cultures plated in identical media and exposed to OGD at the same time were compared by repeated measures statistics. Results are shown as means±SEM. Comparative statistics were performed with Student's t-test or one-way repeated measures ANOVA where indicated.

hippocampal cultures [1] = test: NMDA-induced cell death (NMDA toxicity) in hippocampal cultures; type: cell-based
Procedure: If the neuroprotective effects of 25-HC are entirely through antagonism of NMDAR function and endogenous, local 24S-HC, it would be expected that 25-HC should also reduce direct NMDA-induced cell death. NMDA was exogenously applied at either 8 μM or 20 μM to induce mild or severe toxicity (FIG. 5A).
as §1, §3

NMDARs [2] = test: Modulation of NMDAR function
NMDARs [3] = conditions: cited from earlier work
hippocampal cultures [4] = test: More severe OGD (3 hours) with NMDAR blockade by MK-801, cell death; type: cell-based; conditions: for normalized survival: n=9 cultures
Procedure: As a final test, a more severe OGD insult was applied by increasing OGD exposure time from 2.5 hours to 3 hours to help emphasize any NMDAR-independent mechanisms of OGD-induced death.
as §2, §3

hippocampal cultures [5] = test: H2O2 induced toxicity (model of oxidative damage); type: cell-based; conditions: H2O2 100 μM, 1 hour treatment; in the presence of MK-801
Procedure: (§4) FIG. 6A, FIG. 6B, FIG. 6C, FIG. 6D, and FIG. 6E depict graphs showing that 25-HC has an NMDAR-independent protecting effect on OGD-induced cell death. (FIG. 6A) Survival rate was compared between control, OGD (3 hour), OGD (3 hour)+MK-801, and OGD (3 hour) +MK-801+25-HC. […] 25-HC protected against the MK-801 insensitive OGD-induced cell death. (n=12 cultures for each group, one-way repeated measures ANOVA with Bonferroni's post hoc test, *p<0.05, ***p<0.001). […] (FIG. 6C) H2O2 (100 μM, 1 hour treatment) toxicity was used to test neuroprotection of 25-HC. 25-HC again yielded mild but reliable protection (N=10 cultures for each group, one-way repeated measures ANOVA with Bonferroni's post hoc test, *P<0.05). (FIG. 6D) and (FIG. 6E) Neither WT nor CYP46A1 knockout hippocampal neuron cultures from C571Bl/6 mice was sensitive to the mild NMDAR independent neuroprotective effect of 25-HC (N=7 cultures for each group; P>0.05).
(§5) To further test the NMDAR-independence neuroprotective effect, a model of oxidative damage: H2O2 induced toxicity was used.

[6] = system: hippocampal neuron cultures from C571Bl/6 mice; test: NMDAR-independent neuroprotection in WT and CYP46A1 knockout mouse hippocampal neuron cultures; type: cell-based
Procedure: as §4, §5
Cell culture. All animal care and experimental procedures were consistent with National Institutes of Health guidelines and were approved by the Washington University Animal Studies Committee. Studies involving animals are reported in accordance with the ARRIVE guidelines for reporting experiments involving animals (12, 13). […]

## CC(C)[C@@H](O)CC[C@@H](C)[C@H]1CC[C@H]2[C@@H]3CC=C4C[C@@H](O)CC[C@]4(C)[C@H]3CC[C@]12C [24S-HC, 24S-hydroxycholesterol]
Rat hippocampal cultures; 24S-HC 0.5 μM
  survival compared to OGD alone: significantly poorer survival
Rat hippocampal cultures; 24S-HC 2 μM, exogenous application, WT rat hippocampal cultures 14 days in vitro
  OGD-induced cell death / survival rate: significantly poorer survival; also recorded: enhanced OGD-induced cell death; also recorded: significantly lower survival rate
Rat hippocampal cultures; 24S-HC alone
  effect on survival when administered alone (no OGD): Consistent effects of 24S-HC were not observed
Rat hippocampal cultures; 24S-HC over a range of 50 nM to 2 μM, rat cultures
  concentration dependence of OGD-induced cell death: depended on 24S-HC concentration
Hippocampal cultures [1]; 8 μM NMDA
  NMDA toxicity with 24S-HC co-treatment: exacerbated NMDA toxicity
NMDARs [2]
  exogenous concentration needed to potentiate NMDAR function: ~50 nM
NMDARs [3]
  concentration at which effects on NMDAR function saturate: ~10 µM

## C[C@H](CCCC(C)(C)O)[C@H]1CC[C@H]2[C@@H]3CC=C4C[C@@H](O)CC[C@]4(C)[C@H]3CC[C@]12C [25-HC, 5-cholestene-3β,25-diol]
Rat hippocampal cultures; 10 μM 25-HC incubation during the OGD insult
  OGD-induced cell death without exogenous 24S-HC: alleviated
Rat hippocampal cultures; 10 μM 25-HC with 1 μM SGE-201
  SGE-201-exacerbated OGD injury: alleviated
Rat hippocampal cultures; 25-HC before or after OGD insult
  survival rates, treatment before versus after OGD insult: comparable survival rates
Rat hippocampal cultures; co-treatment 10 μM 25-HC and 2 μM 24S-HC
  OGD-induced cell death relative to 24S-HC and OGD alone: significantly alleviated OGD-induced cell death
Hippocampal cultures [1]; 10 μM 25-HC, 8 μM NMDA + 24S-HC
  24S-HC exacerbation of NMDA toxicity: significantly alleviated
Hippocampal cultures [1]; 10 μM 25-HC, NMDA 8 μM or 20 μM
  neuroprotection against NMDA-induced cell death: no neuroprotection
Hippocampal cultures [4]; 10 μM 25-HC in the presence of 20 μM MK-801, OGD 3 hours
  neuroprotection against MK-801 insensitive OGD-induced cell death: mild but significant neuroprotection
Hippocampal cultures [5]
  neuroprotection against H2O2 induced toxicity: mild but consistent neuroprotective effect
[6]; CYP46A1 knockout mouse cultures
  NMDAR-independent neuroprotective effect: did not extend
[6]; WT mouse cultures
  NMDAR-independent neuroprotective effect: did not extend
NMDARs [3]
  antagonism of 24S-HC effects on NMDARs: non-competitively antagonizes

## N[C@@H](CCCP(=O)(O)O)C(=O)O [APV]
Rat hippocampal cultures; APV
  OGD-induced cell death in AAV-CYP-GFP and AAV-GFP-infected neuron cultures: prevented OGD-induced cell death
Rat hippocampal cultures; administered before and during OGD
  neuroprotection against OGD: highly neuroprotective
Rat hippocampal cultures; administered during the latent period following OGD insult
  neuroprotection against OGD: much less effective
Rat hippocampal cultures
  OGD-induced cell death exacerbated by 24S-HC, effect of NMDAR antagonist: rescued

## C[C@]12N[C@H](Cc3ccccc31)c1ccccc12 [MK-801]
Rat hippocampal cultures
  OGD-induced cell death exacerbated by 24S-HC, effect of NMDAR antagonist: prevented
Hippocampal cultures [4]; 20 μM MK-801
  cell death after OGD 3 hours: partially rescued
Hippocampal cultures [4]; OGD 3 hours + 20 μM MK-801
  normalized survival: 0.66±0.03

## CN[C@H](CC(=O)O)C(=O)O [NMDA]
Hippocampal cultures [1]; NMDA at 8 μM and 20 μM
  cell survival: significantly reduced cell survival

## C[C@H](CCC(C)(C)O)[C@H]1CC[C@H]2[C@@H]3CC=C4C[C@@H](O)CC[C@]4(C)[C@H]3CC[C@]12C [SGE-201]
Rat hippocampal cultures; 1 μM SGE-201
  OGD injury: exacerbated OGD injury
Hippocampal cultures [4]; 1 μM SGE-201 in the presence of 20 μM MK-801
  exacerbation of OGD toxicity: failed to exacerbate OGD toxicity
Hippocampal cultures [4]; OGD 3 hours + 20 μM MK-801 + 1 μM SGE-201
  normalized survival: 0.64±0.04
